The record followed here is patent US8299074B2, “P38 MAP kinase inhibitors” (RespiVert Ltd., priority 2008, dated 2012).

Molecules are shown by their SMILES. Read-outs that look alike come from different tables or passages of the source.

In data set [1] the test system is Differentiated U937 cells. Nature of the data set: MTT assay (cell viability). Particulars: loss of cell viability at 1 μg/ml. Type of data set: cell-based, human. In short, it runs like this: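 Differentiated U937 cells pre-incubated with compound 4 h in 5% FCS or 24 h in 10% FCS; MTT read at 550 nm after DMSO solubilisation. Percentage loss of viability relative to 0.5% DMSO vehicle; apparent increases appear as negative percentages.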

For another data set, the system named is THP-1 cells. The data set is described as follows: LPS-induced TNF alpha release in THP-1 cells. Type of data set: cell-based. The note with it: Homo sapiens. As to the method: LPS-Induced TNF Alpha Release in THP-1 Cells: Potency […] Coli; O111:B4, Sigma) for 4 hr and the supernatant collected for determination of TNFα concentration by sandwich ELISA (Duo-set, R&D systems). The inhibition of TNFα production was calculated at each concentration by comparison with vehicle control.

Data set [2] relates to U937 cells. Nature of the data set: LPS-induced IL-8 release in U937 cells. Type of data set: cell-based. Particulars: Homo sapiens, read-out: DU937 (LPS) IL-8 IC50. In short, it runs like this: (§1)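 U937 cells differentiated with PMA (100 ng/ml) for 48 to 72 hours, pre-treated with compound for 2 hrs, then stimulated with E. coli O111:B4 LPS for 4 hrs. Supernatant TNFα and IL-8 measured by sandwich ELISA; inhibition at each concentration versus vehicle control.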

A further data set addresses T1, p38 MAPK alpha (MAPK14) (Homo sapiens, UniProt Q16539).
T1 construct: purchased Invitrogen
The data set is described as follows: Enzyme inhibition assay, p38 MAPK alpha (FRET, Z-LYTE, via MAPKAP-K2). Type of data set: biochemical. Particulars: Table 3; read-out: Enzyme p38α IC50.

The next data set deals with BEAS2B cells. The data set is described as follows: Poly I:C-induced ICAM-1 induction in BEAS2B cells. Type of data set: cell-based. Particulars: Homo sapiens, BEAS-2B, read-out: BEAS2B (polyIC) ICAM1 IC50. In short, it runs like this:
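Poly I:C (1 ug/ml) transfected into BEAS2B cells after 2 h compound pre-incubation. Surface ICAM-1 measured by cell-based ELISA 18 h post-transfection (HRP, OD450–655), corrected for cell number by OD595.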

Data set [3] relates to U937 cells. The data set is described as follows: LPS-induced TNF alpha release in U937 cells. Type of data set: cell-based. A digest of the protocol:
as §1

The mark [4] stands for this setting: THP-1, Table 3, read-out: THP-1 (LPS) TNFα IC50.
The mark [5] stands for this setting: Homo sapiens; read-out: DU937 (LPS) TNFα REC50.
The mark [6] stands for this setting: THP-1, read-out: THP-1 (LPS) TNFα IC50.
Where [7] appears, read: Homo sapiens, read-out: DU937 (LPS) TNFα REC50.

What is called IC50 is the point on the concentration scale where inhibition reaches its midpoint.

T1 sequence (Q16539 whole entry): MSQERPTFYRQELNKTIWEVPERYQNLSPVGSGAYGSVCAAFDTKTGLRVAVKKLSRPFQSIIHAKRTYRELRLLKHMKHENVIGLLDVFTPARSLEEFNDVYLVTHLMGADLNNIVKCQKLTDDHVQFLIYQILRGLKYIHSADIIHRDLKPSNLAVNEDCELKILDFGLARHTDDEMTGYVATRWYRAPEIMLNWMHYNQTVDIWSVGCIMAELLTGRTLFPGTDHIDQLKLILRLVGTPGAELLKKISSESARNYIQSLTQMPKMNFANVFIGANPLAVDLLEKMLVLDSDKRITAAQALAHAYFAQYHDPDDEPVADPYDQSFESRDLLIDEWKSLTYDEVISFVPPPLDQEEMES

On to `Cc1ccc(-n2nc(C(C)(C)C)cc2NC(=O)Nc2ccc(Oc3ccnc(NC(=O)N4CCN(C)CC4)c3)c3ccccc23)cc1` [Example 43, N-(4-((4-(3-(3-(tert-Butyl)-1-(p-tolyl)-1H-pyrazol-5-yl)ureido)naphthalen-1-yl)oxy)pyridin-2-yl)-4-methylpiperazine-1-carboxamide], for which the “DU937 (cell viability) MTT assay 4 h” value in data set [1] (Table 3, first MTT column) is reported as “− (<=30%)”; in data set [1] (Table 3, second MTT column) it was “− (<=30%)”. Further, the IC50 with THP-1 cells (setting [4]), with U937 cells [2] (Table 3), on p38 MAPK alpha (MAPK14) and with BEAS2B cells (Table 3) was < 10 nM in each case. Also, in the data set on U937 cells [3] (setting [5]), the EC50 is < 10 nM.

For `Cc1ccc(-n2nc(C(C)(C)C)cc2NC(=O)Nc2ccc(Oc3ccnc(NC(=O)N(C)C)c3)c3ccccc23)cc1` [Example 44, 3-(4-((4-(3-(3-(tert-Butyl)-1-(p-tolyl)-1H-pyrazol-5-yl)ureido)naphthalen-1-yl)oxy)pyridin-2-yl)-1,1-dimethylurea], the “DU937 (cell viability) MTT assay 4 h” value in data set [1] (Table 3, first MTT column) is “− (<=30%)”; in data set [1] (Table 3, second MTT column), “− (<=30%)”. Besides, the 50% inhibitory concentration (IC50) in the data set on THP-1 cells (setting [6]) is < 10 nM; with U937 cells [2] it was < 10 nM; at p38 MAPK alpha (MAPK14) it was < 5000 nM; in the data set on BEAS2B cells, < 10 nM. The EC50 with U937 cells [3] (setting [7]) is < 10 nM.

Regarding `Cc1ccc(-n2nc(C(C)(C)C)cc2NC(=O)Nc2ccc(Oc3ccnc(NC(=O)N4CCCCC4)c3)c3ccccc23)cc1` [Example 45, N-(4-((4-(3-(3-(tert-Butyl)-1-(p-tolyl)-1H-pyrazol-5-yl)ureido)naphthalen-1-yl)oxy)pyridin-2-yl)piperidine-1-carboxamide], the “DU937 (cell viability) MTT assay 4 h” value is on record as “− (<=30%)” in data set [1] (Table 3, first MTT column) and “− (<=30%)” in data set [1] (Table 3, second MTT column). For the same molecule, the half-maximal inhibitory concentration (IC50) in the data set on THP-1 cells (setting [4]), in the data set with U937 cells [2] (Table 3), on p38 MAPK alpha (MAPK14) and in the data set on BEAS2B cells (Table 3) was < 10 nM throughout. Besides, in the data set with U937 cells [3] (setting [5]), the EC50 is < 10 nM.

On to `Cc1ccc(-n2nc(C(C)(C)C)cc2NC(=O)Nc2ccc(Oc3ccnc(NC(=O)N(C)CCN4CCOCC4)c3)c3ccccc23)cc1` [Example 46, N-Methyl-N-(2-(morpholin-4-yl)ethyl)-N′-4-(4-(3-(3-tert-butyl-1-p-tolyl-1H-pyrazol-5-yl)ureido)naphthalen-1-yloxy)pyridin-2-ylurea], for which the “DU937 (cell viability) MTT assay 4 h” value in data set [1] (Table 3, first MTT column) is “− (<=30%)”; in data set [1] (Table 3, second MTT column), “− (<=30%)”. The IC50 in the data set with THP-1 cells (setting [4]) is < 5000 nM; in the data set on U937 cells [2] (Table 3) it was < 10 nM; on p38 MAPK alpha (MAPK14) it was < 10 nM; in the data set on BEAS2B cells (Table 3) it was < 5000 nM. In the data set on U937 cells [3] (setting [5]), the EC50 was < 10 nM.

On to `Cc1ccc(-n2nc(C(C)(C)C)cc2NC(=O)Nc2ccc(Oc3ccnc(NC(=O)NCCCCN4CCOCC4)c3)c3ccccc23)cc1` [Example 47, N-(4-(Morpholin-4-yl)butyl)-N′-4-(4-(3-(3-tert-butyl-1-p-tolyl-1H-pyrazol-5-yl)ureido)naphthalen-1-yloxy)pyridin-2-ylurea], for which the “DU937 (cell viability) MTT assay 4 h” value was “− (<=30%)” in data set [1] (Table 3, first MTT column) and “− (<=30%)” in data set [1] (Table 3, second MTT column). The IC50 in the data set on THP-1 cells (setting [4]), in the data set with U937 cells [2] (Table 3), at p38 MAPK alpha (MAPK14) and with BEAS2B cells (Table 3) was < 10 nM each time. The EC50 in the data set with U937 cells [3] (setting [5]) was < 10 nM.

On to `Cc1ccc(-n2nc(C(C)(C)C)cc2NC(=O)Nc2ccc(Oc3ccnc(NC(=O)NCc4cc(C)no4)c3)c3ccccc23)cc1` [Example 49, N-(3-Methylisoxazol-5-yl)methyl-N′-4-(4-(3-(3-tert-butyl-1-p-tolyl-1H-pyrazol-5-yl)ureido)naphthalen-1-yloxy)pyridin-2-ylurea], for which the “DU937 (cell viability) MTT assay 4 h” value in data set [1] (Table 3, first MTT column) is reported as “− (<=30%)”; in data set [1] (Table 3, second MTT column), “− (<=30%)”. The 50% inhibitory concentration (IC50) in the data set on THP-1 cells (setting [4]) is < 10 nM; in the data set on U937 cells [2] (Table 3), < 5000 nM; on p38 MAPK alpha (MAPK14) it was < 10 nM; in the data set on BEAS2B cells (Table 3) it was < 5000 nM. The EC50 with U937 cells [3] (setting [5]) is < 10 nM.

On to `Cc1ccc(-n2nc(C(C)(C)C)cc2NC(=O)Nc2ccc(Oc3ccnc(NC(=O)NC4CCN(C)CC4)c3)c3ccccc23)cc1` [Example 50, N-(1-Methyl)piperidin-4-yl-N′-4-(4-(3-(3-tert-butyl-1-p-tolyl-1H-pyrazol-5-yl)ureido)naphthalen-1-yloxy)pyridin-2-ylurea], for which the “DU937 (cell viability) MTT assay 4 h” value in data set [1] (Table 3, first MTT column) was “− (<=30%)”; in data set [1] (Table 3, second MTT column) it was “+ (>30%)”. In addition, the IC50 with THP-1 cells (setting [6]), with U937 cells [2], on p38 MAPK alpha (MAPK14) and in the data set on BEAS2B cells was < 10 nM each time. Moreover, the EC50 in the data set on U937 cells [3] (setting [7]) is < 10 nM.

As for `Cc1ccc(-n2nc(C(C)(C)C)cc2NC(=O)Nc2ccc(Oc3ccnc(NC(=O)N4CCC(O)CC4)c3)c3ccccc23)cc1` [Example 51, N-(4-(4-(3-(3-tert-Butyl-1-p-tolyl-1H-pyrazol-5-yl)ureido)naphthalen-1-yloxy)pyridin-2-yl)-4-hydroxypiperidine-1-carboxamide], the “DU937 (cell viability) MTT assay 4 h” value in data set [1] (Table 3, first MTT column) is “− (<=30%)”; in data set [1] (Table 3, second MTT column), “+ (>30%)”. Besides, the IC50 with THP-1 cells (setting [4]), in the data set on U937 cells [2] (Table 3), on p38 MAPK alpha (MAPK14) and in the data set on BEAS2B cells (Table 3) was < 10 nM throughout. Also, the EC50 in the data set on U937 cells [3] (setting [5]) is < 10 nM.

On to `Cc1ccc(-n2nc(C(C)(C)C)cc2NC(=O)Nc2ccc(Oc3ccnc(NC(=O)NCCCn4ccnc4)c3)c3ccccc23)cc1` [Example 52, N-(3-(Imidazol-1-yl)propyl)-N′-4-(4-(3-(3-tert-butyl-1-p-tolyl-1H-pyrazol-5-yl)ureido)naphthalen-1-yloxy)pyridin-2-ylurea], for which the “DU937 (cell viability) MTT assay 4 h” value in data set [1] (Table 3, first MTT column) is “− (<=30%)”; in data set [1] (Table 3, second MTT column), “− (<=30%)”. Moreover, the 50% inhibitory concentration (IC50) in the data set on THP-1 cells (setting [4]) was < 10 nM; with U937 cells [2] (Table 3), < 10 nM; at p38 MAPK alpha (MAPK14) it was < 5000 nM; in the data set with BEAS2B cells (Table 3), < 10 nM. The EC50 in the data set with U937 cells [3] (setting [5]) is < 10 nM.

With `Cc1ccc(-n2nc(C(C)(C)C)cc2NC(=O)Nc2ccc(Oc3ccnc(NC(=O)NCC(=O)N4CCCC4)c3)c3ccccc23)cc1` [Example 53, N-(2-(3-(4-(4-(3-(3-tert-Butyl-1-p-tolyl-1H-pyrazol-5-yl)ureido)naphthalen-1-yloxy)pyridin-2-yl)ureido)acetyl)pyrrolidine], the “DU937 (cell viability) MTT assay 4 h” value in data set [1] (Table 3, first MTT column) is “− (<=30%)”; in data set [1] (Table 3, second MTT column), “− (<=30%)”. For the same molecule, the half-inhibitory concentration (IC50) in the data set on THP-1 cells (setting [4]) is < 10 nM; with U937 cells [2] (Table 3), < 5000 nM; at p38 MAPK alpha (MAPK14), < 10 nM; in the data set on BEAS2B cells (Table 3) it was < 10 nM. In addition, the EC50 in the data set on U937 cells [3] (setting [5]) was < 10 nM.

On to `Cc1ccc(-n2nc(C(C)(C)C)cc2NC(=O)Nc2ccc(Oc3ccnc(NC(=O)N4CC[C@@H](N(C)C)C4)c3)c3ccccc23)cc1` [Example 54, (R)—N-(4-(4-(3-(3-tert-Butyl-1-p-tolyl-1H-pyrazol-5-yl)ureido)naphthalen-1-yloxy)pyridin-2-yl)-3-(dimethylamino)pyrrolidine-1-carboxamide], for which the “DU937 (cell viability) MTT assay 4 h” value is given as “− (<=30%)” in data set [1] (Table 3, first MTT column) and “− (<=30%)” in data set [1] (Table 3, second MTT column). Besides, the IC50 in the data set on THP-1 cells (setting [4]), with U937 cells [2] (Table 3), at p38 MAPK alpha (MAPK14) and in the data set with BEAS2B cells (Table 3) was < 10 nM in each case. In addition, the EC50 in the data set on U937 cells [3] (setting [5]) is < 10 nM.

`Cc1ccc(-n2nc(C(C)(C)C)cc2NC(=O)Nc2ccc(Oc3ccnc(NC(=O)N4CCCC4)c3)c3ccccc23)cc1` [Example 55, N-(4-(4-(3-(3-tert-Butyl-1-p-tolyl-1H-pyrazol-5-yl)ureido)naphthalen-1-yloxy)pyridin-2-yl)pyrrolidine-1-carboxamide]: the “DU937 (cell viability) MTT assay 4 h” value in data set [1] (Table 3, first MTT column) is reported as “− (<=30%)”; in data set [1] (Table 3, second MTT column) it was “− (<=30%)”. In addition, the IC50 with THP-1 cells (setting [4]), in the data set on U937 cells [2] (Table 3), on p38 MAPK alpha (MAPK14) and in the data set with BEAS2B cells (Table 3) was < 10 nM in each case. Besides, the EC50 in the data set with U937 cells [3] (setting [5]) was < 10 nM.

In the case of `Cc1ccc(-n2nc(C(C)(C)C)cc2NC(=O)Nc2ccc(Oc3ccnc(NC(=O)NCC(=O)NCCN4CCOCC4)c3)c3ccccc23)cc1` [Example 57, 2-(3-(4-(4-(3-(3-tert-Butyl-1-p-tolyl-1H-pyrazol-5-yl)ureido)naphthalen-1-yloxy)pyridin-2-yl)ureido)-N-(2-morpholinoethyl)acetamide], the “DU937 (cell viability) MTT assay 4 h” value in data set [1] (Table 3, first MTT column) is reported as “− (<=30%)”; in data set [1] (Table 3, second MTT column), “− (<=30%)”. Also, the concentration for half-maximal inhibition (IC50) in the data set on THP-1 cells (setting [4]) is < 10 nM; in the data set on U937 cells [2] (Table 3) it was < 5000 nM; on p38 MAPK alpha (MAPK14) it was < 10 nM; with BEAS2B cells (Table 3), < 5000 nM. Moreover, the EC50 in the data set with U937 cells [3] (setting [5]) is < 5000 nM.
